# Results reported in patent US7160983B2, “Echinocandin derivatives, their method of preparation and their application as anti-fungal agents” (Aventis Pharma S.A., priority 1997, dated 2007).
# Tested on: Glucane Synthesis of Candida Albicans
# Assay: Inhibition of the glucane synthesis of Candida albicans (membrane preparation, 14C-UDP glucose incorporation)
# Assay type: biochemical
# Conditions: Candida albicans membranes, 25° C., 1 hour
# Procedure: Pharmacological Study A—Inhibition of the Glucane Synthesis of Candida Albicans.
# The membranes of Candida albicans are purified according to the process described by Tang and al Antimicrob. Agents Chemother 35, 99–103, 1991. 22.5 μg of membrane proteins are incubated in a mixture of 2 Mm of 14C-UDP glucose (specific activity=0.34 mCi./mmol, 50 μg of α-amylase, 1 Mm of dithiotreitol (DTT), 1 Mm EDTA, 100 Mm NaF, 7 μM of GTP-γ-S, 1M of sucrose and 5 oMm OF Ttris-HCL (pH 7.8) in a volume of 100 μl. The medium is incubated at 25° C. for 1 hour and the reaction terminated by addition of TCA to a final concentration of 5%. The reaction medium is transferred onto a pre-humidified glass fibre filter. The filter is washed, dried and its radioactivity is counted.
# Mulundocandin is used as positive control.
# The control of the medium is carried out with the same quantity of DMSO 1%.
row,Substance,Inhibition of the glucane synthesis of Candida albicans (activity in words)
1,(±) Trifluoroacetate of 1-[4-[(aminoiminomethyl)hydrazono]-N2-(12-methyl-1-oxotetradecyl)-L-ornithine]4-[4-(4-hydroxyphenyl)-L-threonine]-5-L serine echinocandin B [Example 11],good activity
2,Trifluoroacetate of 1-[4-[(2-aminoethyl) amino]-N2-(12-methyl-1-oxotetradecyl)-L-ornithine]4-[4-(4-hydroxyphenyl)-L-threonine]-5-L serine echinocandin B (isomer A and isomer B) [Example 9],good activity
3,Trifluoroacetate of 1-[4-[(2-aminoethyl) amino]N2-[[4′-(octyloxy)[1.1′-biphenyl]-4-[carbonyl]-L-ornithine]4-[4-(4-(4-hydroxyphenyl)-L-threonine]-5-L serine echinocandin B (isomer A) [Example 14],good activity
